Data as given in ChEMBL document CHEMBL1201862, “PubChem BioAssay data set” (2004).
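Step 1: Grow cells in 96-well plates. Step 2: Expose to compound for 48 hours at 5 concentrations. Step 3: Interpolate endpoints linearly; if unreached, use highest concentration. Abbreviation: GI50, concentration required for 50% inhibition of growth.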 Activity calls are given as the source filed them. Rule as the data show it: active = GI50 up to about 1.1 µM and inactive = higher.

Columns and labels:
Experiment in all cases: NCI-60 cell line screen, 48 h
[1] = system: ACHN
[2] = system: CAKI-1
[3] = system: CCRF-CEM
[4] = system: EKVX
[5] = system: HCC 2998
[6] = system: HCT-116
[7] = system: HL-60
[8] = system: Hs-578T
[9] = system: IGROV-1
[10] = system: KM12
[11] = system: MDA-MB-231
[12] = system: OVCAR-3
[13] = system: OVCAR-5
[14] = system: SF-295
[15] = system: SF-539
[16] = system: SK-MEL-5
[17] = system: SK-OV-3
[18] = system: SW-620
[19] = system: TK-10
[20] = system: UACC-257

Compound	GI50 [1]	GI50 [2]	GI50 [3]	GI50 [4]	GI50 [5]	GI50 [6]	GI50 [7]	GI50 [8]	GI50 [9]	GI50 [10]	GI50 [11]	GI50 [12]	GI50 [13]	GI50 [14]	GI50 [15]	GI50 [16]	GI50 [17]	GI50 [18]	GI50 [19]	GI50 [20]
COc1ccc(-c2c3c(n(C4OC(CO)C(O)C(O)C4O)c(=S)c2C#N)CCCC3)cc1 (stereo not given)	> 100 µM (inactive)	> 100 µM (inactive)	52 µM (inactive)	> 100 µM (inactive)	> 100 µM (inactive)	> 100 µM (inactive)	72.9 µM (inactive)	> 100 µM (inactive)	> 100 µM (inactive)	> 100 µM (inactive)	> 100 µM (inactive)	> 100 µM (inactive)	> 100 µM (inactive)	> 100 µM (inactive)	> 100 µM (inactive)	62.2 µM (inactive)	> 100 µM (inactive)	> 100 µM (inactive)	> 100 µM (inactive)	> 100 µM (inactive)
Cc1ccc(/N=N/c2ccc(O)c(CN(C)C)c2)cc1C	17.6 µM (inactive)	25.6 µM (inactive)	24 µM (inactive)	20.6 µM (inactive)	16.4 µM (inactive)	36.3 µM (inactive)	10.1 µM (inactive)	16.4 µM (inactive)	21.3 µM (inactive)	16.9 µM (inactive)	16.3 µM (inactive)	15.6 µM (inactive)	31.8 µM (inactive)	40.7 µM (inactive)	19.5 µM (inactive)	15.1 µM (inactive)	45 µM (inactive)	33.6 µM (inactive)	16.1 µM (inactive)	23.1 µM (inactive)
Clc1ccc(C(c2ccc(Cl)cc2)N2CCNCC2)cc1	2.16 µM (inactive)	4.39 µM (inactive)	2.34 µM (inactive)	3.02 µM (inactive)	1.46 µM (inactive)	1.73 µM (inactive)	1.86 µM (inactive)	2.74 µM (inactive)	1.77 µM (inactive)	1.77 µM (inactive)	2.09 µM (inactive)	1.9 µM (inactive)	6.78 µM (inactive)	2.28 µM (inactive)	1.87 µM (inactive)	2.02 µM (inactive)	5.43 µM (inactive)	2.22 µM (inactive)	1.64 µM (inactive)	2.12 µM (inactive)
O=C1CC2OCC=C3CN4CCC5(C(=O)O)C(N1)C2C3CC45 (stereo not given)	> 100 µM (inactive)	> 100 µM (inactive)	> 100 µM (inactive)	> 100 µM (inactive)	> 100 µM (inactive)	> 100 µM (inactive)	> 100 µM (inactive)	> 100 µM (inactive)	> 100 µM (inactive)	> 100 µM (inactive)	> 100 µM (inactive)	> 100 µM (inactive)	> 100 µM (inactive)	> 100 µM (inactive)	> 100 µM (inactive)	> 100 µM (inactive)	> 100 µM (inactive)	> 100 µM (inactive)	> 100 µM (inactive)	> 100 µM (inactive)
CCCCCCCCCCCCOCCCCCCCCC/C=C/c1ccc2c(c1)OCCOCCOCCOCCO2	19.1 µM (inactive)	17.3 µM (inactive)	39.5 µM (inactive)	26.6 µM (inactive)	17.9 µM (inactive)	16 µM (inactive)	28.8 µM (inactive)	16.4 µM (inactive)	21.3 µM (inactive)	16.8 µM (inactive)	17.1 µM (inactive)	21.1 µM (inactive)	31 µM (inactive)	16.3 µM (inactive)	17.4 µM (inactive)	15.5 µM (inactive)	17.5 µM (inactive)	30.3 µM (inactive)	19.6 µM (inactive)	27 µM (inactive)
Cn1ncc(NCCn2cnc3c2c(=O)n(C)c(=O)n3C)c(Cl)c1=O	> 100 µM (inactive)	> 100 µM (inactive)	> 100 µM (inactive)	> 100 µM (inactive)	> 100 µM (inactive)	> 100 µM (inactive)	> 100 µM (inactive)	> 100 µM (inactive)	> 100 µM (inactive)	> 100 µM (inactive)	> 100 µM (inactive)	> 100 µM (inactive)	> 100 µM (inactive)	> 100 µM (inactive)	> 100 µM (inactive)	> 100 µM (inactive)	> 100 µM (inactive)	> 100 µM (inactive)	> 100 µM (inactive)	> 100 µM (inactive)
Fc1ccc(Nc2nc(Cl)c3nc[nH]c3n2)cc1Cl	34.9 µM (inactive)	6.97 µM (inactive)	> 100 µM (inactive)	67.8 µM (inactive)	32.9 µM (inactive)	> 100 µM (inactive)	> 100 µM (inactive)	39.9 µM (inactive)	84.9 µM (inactive)	> 100 µM (inactive)	> 100 µM (inactive)	> 100 µM (inactive)	> 100 µM (inactive)	> 100 µM (inactive)	45.5 µM (inactive)	> 100 µM (inactive)	87.1 µM (inactive)	> 100 µM (inactive)	> 100 µM (inactive)	> 100 µM (inactive)
CC1CN=C(Nc2ccccc2)S1 (stereo not given)	> 100 µM (inactive)	> 100 µM (inactive)	> 100 µM (inactive)	> 100 µM (inactive)	> 100 µM (inactive)	> 100 µM (inactive)	> 100 µM (inactive)	> 100 µM (inactive)	> 100 µM (inactive)	> 100 µM (inactive)	> 100 µM (inactive)	> 100 µM (inactive)	> 100 µM (inactive)	> 100 µM (inactive)	> 100 µM (inactive)	> 100 µM (inactive)	> 100 µM (inactive)	> 100 µM (inactive)	> 100 µM (inactive)	> 100 µM (inactive)
N/C(=N\Nc1cccc(Cl)c1)c1cccnc1	18.9 µM (inactive)	3.49 µM (inactive)	18.6 µM (inactive)	40.6 µM (inactive)	36 µM (inactive)	29.9 µM (inactive)	4.28 µM (inactive)	> 100 µM (inactive)	70.6 µM (inactive)	30 µM (inactive)	81.1 µM (inactive)	13.5 µM (inactive)	41.3 µM (inactive)	35.7 µM (inactive)	30.2 µM (inactive)	32.9 µM (inactive)	> 100 µM (inactive)	54.2 µM (inactive)	28.6 µM (inactive)	32.3 µM (inactive)
COc1ccc(Cc2nc3cc(Cl)ccc3o2)cc1	59 µM (inactive)	31 µM (inactive)	12.2 µM (inactive)	27.2 µM (inactive)	20.8 µM (inactive)	36.5 µM (inactive)	28.4 µM (inactive)	49.2 µM (inactive)	63 µM (inactive)	27.7 µM (inactive)	30.8 µM (inactive)	27 µM (inactive)	50.6 µM (inactive)	31.3 µM (inactive)	45.1 µM (inactive)	14.5 µM (inactive)	47.3 µM (inactive)	35.5 µM (inactive)	35.7 µM (inactive)	24 µM (inactive)
CO[C@@H]1C[C@H](OC(N)=O)[C@@H]2C=C[C@@H]3/C=C(C)/C=C/[C@@H](C)[C@H](/C(C)=C/[C@@H](C)NC(C)=O)OC(=O)/C=C/C=C(C)\C=C\[C@]3(C)[C@@H]2C1 [SUPERSTOLIDE B]	< 0.005 µM (active)	< 0.005 µM (active)	0.107 µM (active)	0.0986 µM (active)	< 0.005 µM (active)	< 0.005 µM (active)	< 0.005 µM (active)	< 0.005 µM (active)	< 0.005 µM (active)	< 0.005 µM (active)	< 0.005 µM (active)	< 0.005 µM (active)	0.466 µM (active)	< 0.005 µM (active)	< 0.005 µM (active)	< 0.005 µM (active)	< 0.005 µM (active)	< 0.005 µM (active)	0.0718 µM (active)	0.0189 µM (active)
COC(=O)C(=O)C(C(=O)C(=O)Nc1ccc(C)c(C)c1)c1nc2ccc([N+](=O)[O-])cc2nc1O (stereo not given)	> 100 µM (inactive)	> 100 µM (inactive)	> 100 µM (inactive)	99.5 µM (inactive)	> 100 µM (inactive)	> 100 µM (inactive)	> 100 µM (inactive)	> 100 µM (inactive)	> 100 µM (inactive)	> 100 µM (inactive)	> 100 µM (inactive)	> 100 µM (inactive)	> 100 µM (inactive)	> 100 µM (inactive)	> 100 µM (inactive)	> 100 µM (inactive)	> 100 µM (inactive)	> 100 µM (inactive)	> 100 µM (inactive)	> 100 µM (inactive)
